# Tested on: 4-methyl-5-(2-hydroxyethyl)thiazole kinase from E. coli
# Experiment: Kinetic parameters of crotyl alcohol phosphorylation (spectrophotometric assay of Example 2)
# Type: biochemical
# Conditions: crotyl alcohol phosphorylation by purified E. coli kinase
# Description: The release of ADP that is associated with crotyl alcohol phosphorylation was quantified using the pyruvate kinase/lactate dehydrogenase coupled assay (FIG. 5). The purified 4-methyl-5-(2-hydroxyethyl)thiazole kinases from Escherichia coli (SEQ ID NO:2), Bacillus subtilis (SEQ ID NO:1), Rhizobium leguminosarum (SEQ ID NO:3) were evaluated for their ability to phosphorylate crotyl alcohol releasing ADP. The studied enzymatic reaction was carried out under the following conditions at 37° C.: • 50 mM Tris-HCl pH 7.5 • 10 mM MgCl2 • 100 mM KCl • 5 mM ATP • 0.4 mM NADH • 1 mM Phosphoenolpyruvate • 3 U/ml Lactate dehydrogenase • 1.5 U/ml Pyruvate kinase • 50 mM crotyl alcohol, mixture cis and trans • The pH was adjusted to 7.5
# Each assay was started by addition of a particular enzyme at a concentration 0.05 mg/ml and the disappearance of NADH was monitored by following the absorbance at 340 nm.
# Kinetic parameters of crotyl alcohol phosphorylation were determined using the spectrophotometric assay described in Example 2.
row,Compound,Km
1,C/C=C\CO [Cis crotyl alcohol],13.6 mM
2,C/C=C/CO [Trans crotyl alcohol],30 mM
